Like-named read-outs stand apart in the source and are kept apart here.
Key:
[1] = Log P by HPLC on reversed phase columns, method [a] (EEC directive 79/831 Annex V.A8); format: physicochemical; conditions: reversed phase HPLC column
Summary of the method: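 Log P calibrated with C3–C16 straight-chain alkan-2-ones of known Log P, interpolating linearly between retention times. Method per EEC 79/831 Annex V.A8: reversed-phase LC-UV in the acidic range, water/0.1% formic acid and acetonitrile gradient from 10% to 95% acetonitrile.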

Phakopsora pachyrhizi = assay: Example F: in vivo preventive test (soybeans), DMSO/acetone/Tween 80; conditions: 288 h, 500 ppm of tested compound, preventive spray, soybean, evaluated 12 days after inoculation, read-out: efficacy
Summary of the method: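 Compounds in DMSO/acetone/Tween 80, diluted in water, were sprayed preventively onto young plants, which were spore-inoculated 24 h later. Plants were held 24 h at 24 °C and 100% RH, then 11 days at 24 °C and 70–80% RH. Scored 12 days post-inoculation: 0% = control-level disease, 100% = no disease.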

Botrytis cinerea = assay: Example C: in vivo preventive test (grey mould) on gherkin or cabbage; conditions: 500 ppm of active ingredient, preventive spray, evaluated 4 to 5 days after inoculation, read-out: efficacy
Experimental: Solvent: 5% by volume of dimethyl sulfoxide • 10% by volume of acetone Emulsifier: 1 μl of Tween® 80 per mg of active ingredient The tested compounds were made soluble and homogenized in a mixture of dimethyl sulfoxide/acetone/Tween® 80 and then diluted in water to the desired concentration. The young plants of gherkin or cabbage were treated by spraying the tested compound prepared as described above. Control plants were treated only with an aqueous solution of acetone/dimethyl sulfoxide/Tween® 80. After 24 hours, the plants were contaminated by spraying the leaves with an aqueous suspension of Botrytis cinerea spores. The contaminated gherkin plants were incubated for 4 to 5 days at 17° C. and at 90% relative humidity. The contaminated cabbage plants were incubated for 4 to 5 days at 20° C. and at 100% relative humidity. The test was evaluated 4 to 5 days after the inoculation. 0% means an efficacy which corresponds to that of the control plants while an efficacy of 100% means that no disease was observed.

[2] = test system: Colletotrichum lindemuthianum; assay: Example B: in vitro cell test, spore germination and mycelium growth in liquid culture; format: cell-based; conditions: 144 h, 20 ppm of tested compound, 6 days incubation, read-out: efficacy (inhibition of fungal growth)
Summary of the method: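 Compounds in DMSO (final ≤1%) added to glucose/peptone/yeast extract liquid medium containing C. lindemuthianum spores. After 6 days incubation, mycelium growth measured spectrometrically; inhibition calculated from absorbance versus compound-free control wells.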

Puccinia recondita = assay: Example D: in vivo preventive test (brown rust on wheat); conditions: 264 h, 500 ppm of tested compound, preventive spray, evaluated 11 days after inoculation, read-out: efficacy
Experimental: Solvent: 5% by volume of dimethyl sulfoxide • 10% by volume of acetone Emulsifier: 1 μL of Tween® 80 per mg of active ingredient The tested compounds were made soluble and homogenized in a mixture of dimethyl sulfoxide/acetone/Tween® 80 and then diluted in water to the desired concentration. The young plants of wheat were treated by spraying the tested compound prepared as described above. Control plants were treated only with an aqueous solution of acetone/dimethyl sulfoxide/Tween® 80. After 24 hours, the plants were contaminated by spraying the leaves with an aqueous suspension of Puccinia recondita spores. The contaminated wheat plants were incubated for 24 hours at 20° C. and at 100% relative humidity and then for 10 days at 20° C. and at 70-80% relative humidity. The test was evaluated 11 days after the inoculation. 0% means an efficacy which corresponds to that of the control plants while an efficacy of 100% means that no disease was observed.

Alternaria brassicae = assay: Example E: in vivo preventive test (cabbage); conditions: 144 h, 500 ppm of tested compound, preventive spray, evaluated 6 days after inoculation, read-out: efficacy
Summary of the method: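 Young cabbage plants sprayed with compound in DMSO/acetone/Tween 80 diluted in water, then inoculated 24 hours later with Alternaria brassicae spore suspension. Kept 6 days at 20° C., 100% relative humidity. Efficacy scored 6 days post-inoculation: 0% as solvent-treated controls, 100% no disease.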

Phakosporra pachirrhizi = assay: Example A: fungicidal activity, spore germination in 96-well plates; format: cell-based; conditions: 4 hours at 21° C., read-out: efficacy (inhibition of the fungal germination); for inhibition at 30 ppm: 30 ppm of active ingredient; for inhibition at 20 ppm: 20 ppm of active ingredient
Experimental: Cryo-conserved wild-type spores of the biotroph Phakosporra pachirrhizi were humidified in dedicated chamber overnight at 18° C. in the dark. The next day, a solution of spores at 7×10^3 sp/mL was prepared in a water based growth medium (H2O+0.2 mM MOPS at pH 7+0.01% Tween 20) and spores were distributed in a 96-MTPS (final volume of 200 μL per well) thanks to a dispenser robot. Each molecule was tested at 10 doses (from 30 to 0.002 ppm final concentration) and accordingly 1.2 μL of each dilution was transferred in dedicated well to end-up with a final concentration of 0.6% DMSO. Wild-type spores and molecules were incubated for 4 hours at 21° C., and 6 images par well were then acquired with Transmitted Light images (Image Xpress Micro microscope, Molecular Devices, Objective 10×, 6 images per well). Detection and quantification of the number of germinated spores per image was performed with a dedicated in-house developed algorithm (MetaXpress software, Molecular Devices).

[3] = method [a], HPLC on reversed phase columns, read-out: logP
[4] = Method A: LC-UV, acidic range, 0.1% formic acid in water and acetonitrile, read-out: Log P
[5] = log P determined according to method [a] (HPLC on reversed phase columns), read-out: logP

chromatographic logP [1, 5] | Structure (SMILES) | pest or weed control at 500 µg/mL (Phakopsora pachyrhizi) [%] | pest or weed control at 500 ppm (Botrytis cinerea) [%] | inhibition of growth at 20 µg/mL [2] [%] | pest or weed control at 500 µg/mL (Alternaria brassicae) [%] | other results
 | Fc1ccc(C(Nc2ncc(-c3nnc(C(F)F)o3)cn2)C(F)(F)F)cc1 (racemic) [I.181, 5-[5-(difluoromethyl)-1,3,4-oxadiazol-2-yl]-N-[(1RS)-2,2,2-trifluoro-1-(4-fluorophenyl)ethyl]pyrimidin-2-amine] | 90 to 100 | 70 to 79 | 80 to 89 |  | chromatographic logP [1, 3]: 3.22; pest or weed control at 500 µg/mL (Puccinia recondita): 90 to 100%
 | FC(F)c1nnc(-c2cnc(N[C@@H]3C[C@H]3c3ccccc3)nc2)o1 (racemic) [I.196, 5-[5-(difluoromethyl)-1,3,4-oxadiazol-2-yl]-N-[rac-(1R,2S)-2-phenylcyclopropyl]pyrimidin-2-amine] | 90 to 100 | 90 to 100 | 70 to 79 | 90 to 100 | chromatographic logP [1, 3]: 2.94
 | O=C(O)c1ccc(-c2nnc(C(F)(F)F)o2)cc1 [I.004, 4-[5-(trifluoromethyl)-1,3,4-oxadiazol-2-yl]benzoic acid] |  |  |  |  | inhibition at 30 ppm (Phakosporra pachirrhizi): ≥ 70%
 | O=C(O)c1ccc(-c2nnc(C(F)(F)F)s2)cc1 [I.008, 4-[5-(trifluoromethyl)-1,3,4-thiadiazol-2-yl]benzoic acid] |  |  |  |  | chromatographic logP [1, 4]: 1.41; inhibition at 20 ppm (Phakosporra pachirrhizi): ≥ 70%
 | CCc1noc(-c2ccc(-c3nnc(C(F)(F)F)o3)cc2)n1 [I.018, 3-ethyl-5-{4-[5-(trifluoromethyl)-1,3,4-oxadiazol-2-yl]phenyl}-1,2,4-oxadiazole] |  |  |  |  | chromatographic logP [1, 4]: 3.59; inhibition at 30 ppm (Phakosporra pachirrhizi): ≥ 70%
 | O=C(Nc1ccc(F)cc1F)c1ccc(-c2nnc(C(F)F)o2)cc1 [I.027, 4-[5-(difluoromethyl)-1,3,4-oxadiazol-2-yl]-N-(2,4-difluorophenyl)benzamide] |  |  |  |  | inhibition at 4 ppm (Phakosporra pachirrhizi; 4 ppm of active ingredient): ≥ 70%
 | FC(F)c1nnc(-c2cnc(Nc3ccccc3)nc2)o1 [I.076, 5-[5-(difluoromethyl)-1,3,4-oxadiazol-2-yl]-N-phenylpyrimidin-2-amine] |  | 90 to 100 |  | 90 to 100 | 
2.77 | Fc1ccccc1Nc1ncc(-c2nnc(C(F)F)s2)cn1 [I.113, 5-[5-(difluoromethyl)-1,3,4-thiadiazol-2-yl]-N-(2-fluorophenyl)pyrimidin-2-amine] |  | 90 to 100 |  | 90 to 100 | 
 | FC(F)c1nnc(-c2cnc(NC3(c4ccccc4)CCC3)nc2)o1 [I.134, 5-[5-(difluoromethyl)-1,3,4-oxadiazol-2-yl]-N-(1-phenylcyclobutyl)pyrimidin-2-amine] | 90 to 100 |  | 90 to 100 |  | chromatographic logP [1, 4]: 3.18; inhibition at 20 ppm (Phakosporra pachirrhizi): ≥ 70%; pest or weed control at 500 µg/mL (Puccinia recondita): 70 to 79%
3.25 | FC(F)c1nnc(-c2cnc(NCC3(c4ccccc4)CC3)nc2)o1 [I.135, 5-[5-(difluoromethyl)-1,3,4-oxadiazol-2-yl]-N-[(1-phenylcyclopropyl)methyl]pyrimidin-2-amine] |  | 70 to 79 | 80 to 89 | 90 to 100 | 
2.85 | Fc1ccccc1C1(Nc2ncc(-c3nnc(C(F)F)o3)cn2)CC1 [I.144, 5-[5-(difluoromethyl)-1,3,4-oxadiazol-2-yl]-N-[1-(2-fluorophenyl)cyclopropyl]pyrimidin-2-amine] | 90 to 100 |  | 90 to 100 |  | inhibition at 20 ppm (Phakosporra pachirrhizi): ≥ 70%; pest or weed control at 500 µg/mL (Puccinia recondita): 90 to 100%
2.75 | Fc1ccc(C2(Nc3ncc(-c4nnc(C(F)F)o4)cn3)CC2)cc1 [I.146, 5-[5-(difluoromethyl)-1,3,4-oxadiazol-2-yl]-N-[1-(4-fluorophenyl)cyclopropyl]pyrimidin-2-amine] | 90 to 100 | 90 to 100 | 70 to 79 | 90 to 100 | pest or weed control at 500 µg/mL (Puccinia recondita): 90 to 100%
3.84 | FC(F)(F)c1nnc(-c2cnc(NC3(c4ccccc4)CCC3)nc2)o1 [I.160, N-(1-phenylcyclobutyl)-5-[5-(trifluoromethyl)-1,3,4-oxadiazol-2-yl]pyrimidin-2-amine] | 90 to 100 |  | 80 to 89 |  | inhibition at 20 ppm (Phakosporra pachirrhizi): ≥ 70%
 | FC(F)c1nnc(-c2cnc(NC3(C4(c5ccccc5)CC4)CC3)nc2)o1 [I.170, 5-[5-(difluoromethyl)-1,3,4-oxadiazol-2-yl]-N-[1′-phenyl[1,1′-bi(cyclopropyl)]-1-yl]pyrimidin-2-amine] |  | 70 to 79 |  | 90 to 100 | chromatographic logP [1, 3]: 3.64
